Measurements reported in the CheMixHub viscosity set.
± gives the uncertainty stated by the source.

Experiment: xn = mol fraction of the nth substance listed

CC=Cc1ccc(O)c(OC)c1 + CCCCCOC(C)=O
298.15 K, 101 kPa
Settings | viscosity [mPa·s]
x1 = 0.062 | 0.92 ± 0.012
x1 = 0.119 | 1.06 ± 0.014

CC(C)CCl + CCCCO
viscosity [mPa·s], 101.33 kPa
Settings | x1 = 0.1061 | x1 = 0.207 | x1 = 0.3058 | x1 = 0.4036 | x1 = 0.4999 | x1 = 0.6059 | x1 = 0.7007 | x1 = 0.7972 | x1 = 0.8971
298.15 K | 1.981 ± 0.015 | 1.554 ± 0.013 | 1.233 ± 0.011 | 0.9932 ± 0.0093 | 0.8229 ± 0.0082 | 0.6801 ± 0.0073 | 0.5857 ± 0.0067 | 0.515 ± 0.0063 | 0.4612 ± 0.006
313.15 K | 1.395 ± 0.011 | 1.121 ± 0.0094 | 0.9144 ± 0.0082 | 0.7548 ± 0.0073 | 0.6405 ± 0.0066 | 0.5441 ± 0.006 | 0.4768 ± 0.0057 | 0.4261 ± 0.0054 | 0.3888 ± 0.0052

CCCCCCC + CCCCO
viscosity [mPa·s]
Settings | 298.15 K | 308.15 K
100 kPa, x2 = 0.1602 | 0.4667 ± 0.013 | –
100 kPa, x2 = 0.3421 | 0.6085 ± 0.017 | –
100 kPa, x2 = 0.5006 | 0.8545 ± 0.023 | –
100 kPa, x2 = 0.6598 | 1.191 ± 0.032 | –
100 kPa, x2 = 0.8398 | 1.747 ± 0.048 | –
101.33 kPa, x2 = 0.077 | 0.421 ± 0.0045 | 0.3698 ± 0.0043
101.33 kPa, x2 = 0.1523 | 0.456 ± 0.0047 | 0.392 ± 0.0044
101.33 kPa, x2 = 0.2853 | 0.5468 ± 0.0053 | 0.4571 ± 0.0048
101.33 kPa, x2 = 0.4094 | 0.667 ± 0.006 | 0.5432 ± 0.0054
101.33 kPa, x2 = 0.5024 | 0.787 ± 0.0069 | 0.6232 ± 0.0059
101.33 kPa, x2 = 0.6136 | 0.9824 ± 0.0082 | 0.7769 ± 0.007
101.33 kPa, x2 = 0.7055 | 1.204 ± 0.0097 | 0.9444 ± 0.0083
101.33 kPa, x2 = 0.7866 | 1.453 ± 0.012 | 1.136 ± 0.0097
101.33 kPa, x2 = 0.8595 | 1.751 ± 0.014 | 1.363 ± 0.012
101.33 kPa, x2 = 0.8998 | 1.942 ± 0.015 | 1.515 ± 0.013
101.33 kPa, x2 = 0.9352 | 2.144 ± 0.017 | 1.666 ± 0.014
101.33 kPa, x2 = 0.9675 | 2.342 ± 0.018 | 1.821 ± 0.016

CCCCCCCC + CCCCO
298.15 K, 101.33 kPa
Settings | viscosity [mPa·s]
x1 = 0.0832 | 2.013 ± 0.013
x1 = 0.1173 | 1.84 ± 0.012
x1 = 0.1519 | 1.681 ± 0.011
x1 = 0.2113 | 1.443 ± 0.009
x1 = 0.304 | 1.152 ± 0.008
x1 = 0.3599 | 1.017 ± 0.007
x1 = 0.4942 | 0.788 ± 0.006
x1 = 0.6053 | 0.676 ± 0.005
x1 = 0.7044 | 0.615 ± 0.005
x1 = 0.8459 | 0.555 ± 0.004

CCCCCO + CCCCO
viscosity [mPa·s], 101.33 kPa
Settings | x2 = 0.1315 | x2 = 0.278 | x2 = 0.4762 | x2 = 0.5662 | x2 = 0.8222 | x2 = 0.9381
293.15 K | 3.867 ± 0.11 | 3.7 ± 0.11 | 3.489 ± 0.1 | 3.392 ± 0.098 | 3.127 ± 0.09 | 3.013 ± 0.087
298.15 K | 3.353 ± 0.097 | 3.232 ± 0.094 | 3.038 ± 0.088 | 2.959 ± 0.086 | 2.738 ± 0.08 | 2.642 ± 0.077

CN(C)C=O + CCCCO
Settings | viscosity [mPa·s]
298.15 K, 101 kPa, x1 = 0.5035 | 1.381 ± 0.34

ClC(Cl)=C(Cl)Cl + CCCCO
Settings | viscosity [mPa·s]
298.15 K, 101.3 kPa, x1 = 0.6759 | 1.045 ± 0.01

O=[N+]([O-])c1ccccc1 + CCCCO
viscosity [mPa·s]
Settings | 298.15 K | 303.15 K | 308.15 K | 318.15 K
101 kPa, x1 = 0.2 | – | – | 1.58 ± 0.019 | 1.27 ± 0.015
101 kPa, x1 = 0.4 | – | – | 1.411 ± 0.017 | 1.128 ± 0.014
101 kPa, x1 = 0.6 | – | – | 1.339 ± 0.016 | 1.109 ± 0.013
101 kPa, x1 = 0.8 | – | – | 1.35 ± 0.016 | 1.147 ± 0.013
101 kPa, x1 = 0.9 | – | – | 1.403 ± 0.016 | 1.196 ± 0.014
101 kPa, x1 = 0.95 | – | – | 1.453 ± 0.017 | 1.252 ± 0.015
101.33 kPa, x1 = 0.0625 | 2.311 ± 0.11 | 2.075 ± 0.095 | – | –
101.33 kPa, x1 = 0.1311 | 2.142 ± 0.098 | 1.878 ± 0.087 | – | –
101.33 kPa, x1 = 0.2051 | 1.954 ± 0.09 | 1.739 ± 0.081 | – | –
101.33 kPa, x1 = 0.2885 | 1.814 ± 0.084 | 1.611 ± 0.076 | – | –
101.33 kPa, x1 = 0.376 | 1.711 ± 0.08 | 1.559 ± 0.073 | – | –
101.33 kPa, x1 = 0.4747 | 1.65 ± 0.077 | 1.423 ± 0.068 | – | –
101.33 kPa, x1 = 0.5846 | 1.589 ± 0.075 | 1.446 ± 0.069 | – | –
101.33 kPa, x1 = 0.7007 | 1.625 ± 0.076 | 1.476 ± 0.07 | – | –
101.33 kPa, x1 = 0.8442 | 1.658 ± 0.078 | 1.509 ± 0.071 | – | –
